The target in data set [1] is rat small intestine α-glucosidase. The data set can be described thus: Rat α-glucosidase assay (4-nitrophenol release from pNPG). It counts as biochemical. To be noted: for IC50: rat small intestine α-glucosidase, means of three replicates ± standard deviation; for α-glucosidase inhibitory activity (in words): SAR discussion. The method, then:
Based on the reported method of Lossow et al., rat small intestine α-glucosidase (EC 3.2.1.20) was prepared. The in-vitro activity was determined by the measurement of 4-nitrophenol which was released from para-nitrophenyl α-D glucopyranoside. The preparation of 200 µL was performed as follows: the enzyme solution (190 µL, 0.15 units/ml), different concentrations of target compounds (1, 10, 20, 50, 100, 500 and 1000 µM (5 µL), potassium phosphate buffer. Final compounds were dissolved in DMSO (not exceed than 5% of final volume) and pre-incubated at 37 °C, p-nitrophenyl glucopyranoside and then substrate (5 µL, 3 mM), was added to the enzyme solution and incubated for further one hour at 37 °C. Finally, by using Cytation 3 hybrid microplate reader (BioTek, USA) any change in the absorbance was measured at 405 nm. By using GraphPadprism 6.0 (SanDiego, California, USA) (https://www.graphpad.com/scientificsoftware/prism/) was used to obtain IC50 values of tested compounds.

Another data set concerns HDF. The data set can be described thus: Cytotoxicity against normal cell line. It is filed as cell-based.
A further data set deals with α-glucosidase. The data set can be described thus: Kinetic analysis (Lineweaver-Burk and secondary plot). It counts as biochemical, rat. On the procedure: Modes of enzyme inhibition were determined by recording the effect of various concentrations of the substrates 1, 2.5, 5 or 10 mM pNPG for α-glucosidase on Lineweaver–Burk plots using calculated Vmax and Km. For inhibition test of α-glucosidase: the concentrations applied for compounds 10k was 0.1, 1, 5 and 10 nM. Inhibition constants (Ki) were determined by depicting the secondary plot of Km against various concentrations of inhibitors.
The activity of […] (PNPG) was investigated in the presence and absence of compound 10k.

The text below walks through data of PMC10294378, “Synthesis, α-Glucosidase inhibitory activity and docking studies of Novel Ethyl 1,2,3-triazol-4-ylmethylthio-5,6-diphenylpyridazine-4-carboxylate derivatives” (BMC Chemistry, 2023).

SMILES strings stand for the structures. “Also recorded” adds a separate entry of the source.

Usually melting point stands for the temperature of the solid-liquid transition. In general, IC50 refers to the concentration that inhibits the measured activity by half. A lower IC50 goes with greater potency in that assay.

Compound `CCOC(=O)c1c(SCc2cn(CC(=O)Nc3cccc(OC)c3)nn2)nnc(-c2ccccc2)c1-c1ccccc1` [Compound 10e, Ethyl 3-(((1-(2-((3-methoxyphenyl)amino)-2-oxoethyl)-1H-1,2,3-triazol-4-yl)methyl)thio)-5,6-diphenylpyridazine-4-carboxylate] returned a melting point of 155 to 157 °C. For the same compound, the IC50 in data set [1] stood at 35.7 ± 3.9 µM.

For the compound `CCOC(=O)c1c(SCc2cn(CC(=O)Nc3ccc(Cl)cc3)nn2)nnc(-c2ccccc2)c1-c1ccccc1` [Compound 10j, Ethyl 3-(((1-(2-((4-chlorophenyl)amino)-2-oxoethyl)-1H-1,2,3-triazol-4-yl)methyl)thio)-5,6-diphenylpyridazine-4-carboxylate], the melting point fell in the range of 195 to 197 °C. Further, in data set [1], the IC50 is 21 ± 5.3 µM.

Turning to `CCOC(=O)c1c(SCc2cn(CC(=O)Nc3ccc(Cl)c(Cl)c3)nn2)nnc(-c2ccccc2)c1-c1ccccc1` [10 m, Ethyl 3-(((1-(2-((3,4-dichlorophenyl)amino)-2-oxoethyl)-1H-1,2,3-triazol-4-yl)methyl)thio)-5,6-diphenylpyridazine-4-carboxylate], the melting point fell in the range of 166 to 168 °C. In data set [1], the “α-glucosidase inhibitory activity (in words)” value is given as “active” and the IC50 came to 27.7 ± 3 µM.

Consider `CCOC(=O)c1c(SCc2cn(CC(=O)Nc3cccc([N+](=O)[O-])c3)nn2)nnc(-c2ccccc2)c1-c1ccccc1` [Compound 10p, Ethyl 3-(((1-(2-((3-nitrophenyl)amino)-2-oxoethyl)-1H-1,2,3-triazol-4-yl)methyl)thio)-5,6-diphenylpyridazine-4-carboxylate], for which the melting point is 201 to 203 °C. Moreover, the IC50 in data set [1] was 84 ± 13.2 µM.

On to `CCOC(=O)c1c(SCc2cn(CC(=O)Nc3ccc([N+](=O)[O-])c(C)c3)nn2)nnc(-c2ccccc2)c1-c1ccccc1` [Compound 10r, Ethyl 3-(((1-(2-((3-methyl-4-nitrophenyl)amino)-2-oxoethyl)-1H-1,2,3-triazol-4-yl)methyl)thio)-5,6-diphenylpyridazine-4-carboxylate], for which the melting point was in the range of 212 to 214 °C. In data set [1], the “α-glucosidase inhibitory activity (in words)” value is on record as “no activity” and the IC50 was over 250 µM.

In turn, `CCOC(=O)c1c(SCc2cn(CC(=O)Nc3ccc(C(C)C)cc3)nn2)nnc(-c2ccccc2)c1-c1ccccc1` [Compound 10d, Ethyl 3-(((1-(2-((4-isopropylphenyl)amino)-2-oxoethyl)-1H-1,2,3-triazol-4-yl)methyl)thio)-5,6-diphenylpyridazine-4-carboxylate] registered a melting point of 183 to 185 °C. This compound registered an IC50 in data set [1] of 86.5 ± 7.3 µM.

Compound `CCOC(=O)c1c(SCc2cn(CC(=O)Nc3ccc(F)cc3)nn2)nnc(-c2ccccc2)c1-c1ccccc1` [10 g, Ethyl 3-(((1-(2-((4-fluorophenyl)amino)-2-oxoethyl)-1H-1,2,3-triazol-4-yl)methyl)thio)-5,6-diphenylpyridazine-4-carboxylate] yielded a melting point of 211 to 213 °C. The same compound gave an IC50 in data set [1] of 37.5 ± 7.2 µM.

`CCOC(=O)c1c(SCc2cn(CC(=O)Nc3cccc(C#N)c3)nn2)nnc(-c2ccccc2)c1-c1ccccc1` [Compound 10n, Ethyl 3-(((1-(2-((3-cyanophenyl)amino)-2-oxoethyl)-1H-1,2,3-triazol-4-yl)methyl)thio)-5,6-diphenylpyridazine-4-carboxylate]: the melting point was 196 to 198 °C. In data set [1], this compound returned an IC50 of over 250 µM.

For the compound `CCOC(=O)c1c(SCc2cn(CC(=O)Nc3ccc(Br)cc3)nn2)nnc(-c2ccccc2)c1-c1ccccc1` [Compound 10k, Ethyl 3-(((1-(2-((4-bromophenyl)amino)-2-oxoethyl)-1H-1,2,3-triazol-4-yl)methyl)thio)-5,6-diphenylpyridazine-4-carboxylate], the melting point was in the range of 224 to 226 °C. In addition, the cytotoxicity entry in the data set on HDF is “not toxic; also recorded: No toxicity”. Further, the mode of inhibition result with α-glucosidase is on record as “uncompetitive”. The compound also displayed an IC50 in data set [1] of 1.7 ± 0.12 µM. The “folds more active than standard drug (acarbose)” value in data set [1] (ratio of IC50 values against acarbose) amounted to 100 folds.

For the compound `C[C@H]1O[C@H](O[C@H]2[C@H](O)[C@@H](O)[C@@H](O[C@H]3[C@H](O)[C@@H](O)C(O)O[C@@H]3CO)O[C@@H]2CO)[C@H](O)[C@@H](O)[C@@H]1N[C@H]1C=C(CO)[C@@H](O)[C@H](O)[C@H]1O` (stereo partly drawn) [Acarbose, reference compound], the IC50 in data set [1] was found to be 170 ± 23.1 µM.

The compound `CCOC(=O)c1c(SCc2cn(CC(=O)Nc3ccccc3)nn2)nnc(-c2ccccc2)c1-c1ccccc1` [Compound 10a, Ethyl 3-(((1-(2-oxo-2-(phenylamino)ethyl)-1H-1,2,3-triazol-4-yl)methyl)thio)-5,6-diphenylpyridazine-4-carboxylate] yielded a melting point of 147 to 149 °C. In data set [1], this compound returned an IC50 of 35.6 ± 8.9 µM.

`CCOC(=O)c1c(SCc2cn(CC(=O)Nc3ccc(OC)cc3)nn2)nnc(-c2ccccc2)c1-c1ccccc1` [Compound 10f, Ethyl 3-(((1-(2-((4-methoxyphenyl)amino)-2-oxoethyl)-1H-1,2,3-triazol-4-yl)methyl)thio)-5,6-diphenylpyridazine-4-carboxylate]: the melting point lay within 230 to 232 °C. Further, the IC50 in data set [1] amounted to 25.2 ± 2.5 µM.

Regarding `CCOC(=O)c1c(SCc2cn(CC(=O)Nc3ccccc3Cl)nn2)nnc(-c2ccccc2)c1-c1ccccc1` [10 h, Ethyl 3-(((1-(2-((2-chlorophenyl)amino)-2-oxoethyl)-1H-1,2,3-triazol-4-yl)methyl)thio)-5,6-diphenylpyridazine-4-carboxylate], the melting point fell in the range of 161 to 163 °C. In addition, in data set [1], the IC50 worked out at 14.9 ± 1.9 µM.

With `CCOC(=O)c1c(SCc2cn(CC(=O)Nc3cc(Cl)cc(Cl)c3)nn2)nnc(-c2ccccc2)c1-c1ccccc1` [10 L, Ethyl 3-(((1-(2-((3,5-dichlorophenyl)amino)-2-oxoethyl)-1H-1,2,3-triazol-4-yl)methyl)thio)-5,6-diphenylpyridazine-4-carboxylate], the melting point was in the range of 185 to 187 °C. Also, in data set [1], the “α-glucosidase inhibitory activity (in words)” value is “active” and the IC50 came to 14.1 ± 3.3 µM.

Turning to `CCOC(=O)c1c(SCc2cn(CC(=O)Nc3cccc(Cl)c3)nn2)nnc(-c2ccccc2)c1-c1ccccc1` [Compound 10i, Ethyl 3-(((1-(2-((3-chlorophenyl)amino)-2-oxoethyl)-1H-1,2,3-triazol-4-yl)methyl)thio)-5,6-diphenylpyridazine-4-carboxylate], the melting point lay in the range of 200 to 202 °C. Besides, in data set [1], the “α-glucosidase inhibitory activity (in words)” value is “no inhibitory activity” and the IC50 is over 250 µM.

Consider `CCOC(=O)c1c(SCc2cn(CC(=O)Nc3ccc([N+](=O)[O-])cc3)nn2)nnc(-c2ccccc2)c1-c1ccccc1` [Compound 10q, Ethyl 3-(((1-(2-((4-nitrophenyl)amino)-2-oxoethyl)-1H-1,2,3-triazol-4-yl)methyl)thio)-5,6-diphenylpyridazine-4-carboxylate], for which the melting point lay in the range of 221 to 223 °C. Also, in data set [1], the “α-glucosidase inhibitory activity (in words)” value is “active” and the midpoint of inhibition, the IC50, lay at 47.1 ± 5.6 µM.

Take `CCOC(=O)c1c(SCc2cn(CC(=O)Nc3ccc(C)cc3)nn2)nnc(-c2ccccc2)c1-c1ccccc1` [Compound 10c, Ethyl 3-(((1-(2-oxo-2-(p-tolylamino)ethyl)-1H-1,2,3-triazol-4-yl)methyl)thio)-5,6-diphenylpyridazine-4-carboxylate]: the melting point was 207 to 209 °C. This compound also gave an IC50 in data set [1] of over 250 µM.

In data set [1], `CCOC(=O)c1c(SCc2cn(CC(=O)Nc3cccc(C)c3)nn2)nnc(-c2ccccc2)c1-c1ccccc1` [Compound 10b, Ethyl 3-(((1-(2-oxo-2-(m-tolylamino)ethyl)-H-1,2,3-triazol-4-yl)methyl)thio)-5,6-diphenylpyridazine-4-carboxylate] gave an IC50 of 58.9 ± 7.5 µM.
